Results reported in patent US9624235B2, “Compounds and methods for inhibition of AP endonuclease-1/redox factor-1 (HAPE1) activity” (University of Pittsburgh—Of the Commonwealth System of …, priority 2012, dated 2017).

Molecular target: APE-1 (Homo sapiens (Human), UniProt P27695)
Assay: Fluorescence binding of 4 to APE-1 protein
Details: 1 μM APE-1, fluorescence increase
Protocol: Fluorescence and UV Spectrometry Binding Studies. The fluorescence spectra were measured at room temperature on a Cary Eclipse fluorescence spectrometer (Varian, Palo Alto, Calif.). The fluorescence properties of 1 and 4 were measured in 10 mM HEPES, 0.5 mM MgCl2, 100 mM KCl, 100 mM NaCl, 2% glycerol, in absence or presence of wild type (unmodified) hairpin DNA (5′-[…]-3′) or THF-modified hairpin DNA (5′-CGAXTTCGCAGGACCGAATTCG-3′) or APE-1 protein. A solution of 0.5 μM of either DNA sequence was titrated against 1-10 μM ethidium bromide (EtBr) to determine saturation of EtBr by fluorescence (530 nm excitation with 610 nm emission) and the subsequent displacement of EtBr (4 μM) by 1-20 μM 1 or 4 was also assayed. The APE protein-inhibitor binding fluorescence was assayed by titrating 0.1-20 μM of 4 against 1 μM of APE-1 protein.
Interaction of Inhibitors with APE-1 Protein. To establish whether there is a direct interaction between an inhibitor and APE-1, the fluorescence spectra of 4 was determined in the absence and presence of increasing amounts of the protein.

Chain of APE-1 (P27695 whole entry): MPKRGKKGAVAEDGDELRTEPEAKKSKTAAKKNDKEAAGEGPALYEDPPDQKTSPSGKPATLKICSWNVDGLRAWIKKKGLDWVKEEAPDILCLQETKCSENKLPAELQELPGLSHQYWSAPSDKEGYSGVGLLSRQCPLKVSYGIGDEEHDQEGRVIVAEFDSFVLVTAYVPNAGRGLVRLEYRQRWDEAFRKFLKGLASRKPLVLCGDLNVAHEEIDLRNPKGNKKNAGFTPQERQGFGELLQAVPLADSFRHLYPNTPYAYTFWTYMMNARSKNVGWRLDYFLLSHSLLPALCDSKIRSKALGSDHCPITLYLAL

**Q.** How did the Kd turn out when CCn1c2ccccc2c2cc(/C=N/Nc3cc(C)nc4cc5c(cc34)OCO5)ccc21 [Compound 4] was run?
**A.** The Kd was 6.15 µM.
